We go through eight molecules from PubChem BioAssay (NCI).

Among the test systems are MALME-3M melanoma; SF-539 CNS; NCI-H23 lung; HCT-116 colon; MDA-MB-435; UO-31 renal; RXF 393 renal; SNB-19 CNS; CAKI-1 renal; U251 CNS; HL-60(TB) leukemia; EKVX NSCLC; NCI-H522 lung; MDA-MB-231 breast; SNB-75 CNS; MDA-N; DU-145 prostate; UACC-62 melanoma; SK-MEL-2 melanoma.
Common to all, as to assay: NCI tumour cell line growth inhibition, 48 h

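Assay format: 96-well plates, 48-hour exposure. TGI: concentration producing complete growth inhibition.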

On to `CC(=O)OC[C@@H]1[C@H]2CC[C@]3(C)[C@@H](OC(C)=O)CC[C@H]3[C@@H]2CC[C@H]1C1(C)SCCS1`, for which the TGI in the test with MALME-3M melanoma, with SF-539 CNS, in the test on NCI-H23 lung, in the test with HCT-116 colon, with MDA-MB-435 and in the test with UO-31 renal was above 25 µM throughout. Besides, the TGI in the test on RXF 393 renal, with SNB-19 CNS, in the test with CAKI-1 renal, with U251 CNS, with HL-60(TB) leukemia and with EKVX NSCLC was above 25 µM each time. Besides, the TGI in the test on NCI-H522 lung, in the test on MDA-MB-231 breast, in the test with SNB-75 CNS, in the test on MDA-N and with DU-145 prostate was above 25 µM throughout.
For `CN1C(=O)N/C(=C\c2ccc(S(=O)(=O)N/N=C\C(O)C(O)C(O)CO)cc2)C1=O` (stereo unspecified), the TGI in the test on MALME-3M melanoma, in the test with NCI-H23 lung, in the test on HCT-116 colon, with MDA-MB-435, in the test with UO-31 renal and with RXF 393 renal was above 100 µM each time. The TGI with SNB-19 CNS, in the test on CAKI-1 renal, with U251 CNS, in the test with HL-60(TB) leukemia, with EKVX NSCLC and in the test on MDA-MB-231 breast was above 100 µM each time. The TGI with SNB-75 CNS, in the test on UACC-62 melanoma, in the test with MDA-N, in the test with DU-145 prostate and in the test with SK-MEL-2 melanoma was above 100 µM in each case.
Consider `CCOC(=O)C1=C(C)OC(=O)[C@@]2(OC)C=C(Cl)[C@@]12C`, for which the TGI with MALME-3M melanoma, in the test with SF-539 CNS, in the test on NCI-H23 lung, with HCT-116 colon, in the test with MDA-MB-435 and in the test with UO-31 renal was above 100 µM in each case. In addition, the TGI in the test with RXF 393 renal was above 100 µM; in the test with SNB-19 CNS, above 100 µM; with CAKI-1 renal it was above 100 µM; in the test on U251 CNS it was above 100 µM; with HL-60(TB) leukemia, 91 µM; in the test on EKVX NSCLC it was above 100 µM. Moreover, the TGI in the test with NCI-H522 lung, in the test on MDA-MB-231 breast, in the test with SNB-75 CNS, with UACC-62 melanoma, in the test on MDA-N and in the test with DU-145 prostate was above 100 µM in each case.
For `CCOC(=O)C(C)(C(=O)OCC)/C(Cl)=C\Cl`, the TGI in the test on MALME-3M melanoma, in the test with SF-539 CNS, in the test on NCI-H23 lung, in the test on HCT-116 colon, in the test with MDA-MB-435 and in the test with UO-31 renal was above 100 µM in each case. The TGI in the test on RXF 393 renal, in the test on SNB-19 CNS, in the test on CAKI-1 renal, in the test on HL-60(TB) leukemia, in the test on EKVX NSCLC and in the test with NCI-H522 lung was above 100 µM in each case. Besides, the TGI in the test with MDA-MB-231 breast, with SNB-75 CNS, in the test on UACC-62 melanoma, with MDA-N and in the test with DU-145 prostate was above 100 µM in each case.
Regarding `COc1cc(C=C2N=C(c3ccccc3)N(n3c(-c4ccccc4)nc4ccccc4c3=O)C2=O)cc(OC)c1OC`, the TGI was 38.6 µM in the test with MALME-3M melanoma; 45.3 µM with SF-539 CNS; 56.6 µM in the test with NCI-H23 lung; 48.3 µM in the test with HCT-116 colon; 55.3 µM in the test on MDA-MB-435; above 100 µM in the test on UO-31 renal. Further, the TGI in the test with RXF 393 renal is 39.2 µM; in the test on SNB-19 CNS, 72.3 µM; in the test with CAKI-1 renal it was above 100 µM; in the test with HL-60(TB) leukemia, above 100 µM; in the test with EKVX NSCLC, 83.5 µM; in the test on NCI-H522 lung, 39.7 µM. For the same molecule, the TGI stood at 53.1 µM in the test with MDA-MB-231 breast; 62.6 µM in the test on SNB-75 CNS; 51 µM with UACC-62 melanoma; 92.6 µM with MDA-N; 79.9 µM with DU-145 prostate; 43.4 µM in the test on SK-MEL-2 melanoma.
For the molecule `Cc1nn(C(=O)c2ccc(Cl)cc2)c2c1C(c1cccc([N+](=O)[O-])c1)SC(N)=N2` (stereo unspecified), the TGI in the test on MALME-3M melanoma, in the test on SF-539 CNS, with NCI-H23 lung, in the test with HCT-116 colon, with MDA-MB-435 and with RXF 393 renal was above 10 µM in each case. Further, the TGI in the test with SNB-19 CNS, with CAKI-1 renal, in the test on U251 CNS, with HL-60(TB) leukemia, in the test on EKVX NSCLC and in the test on NCI-H522 lung was above 10 µM in each case. The TGI with MDA-MB-231 breast, in the test with SNB-75 CNS, with UACC-62 melanoma, in the test on MDA-N, in the test on DU-145 prostate and in the test on SK-MEL-2 melanoma was above 10 µM in each case.
As to `O=C(CCCN1CCC2(CC1)NC(=O)c1ccccc1O2)c1ccc(F)cc1`, the TGI with MALME-3M melanoma, with SF-539 CNS, with NCI-H23 lung, with HCT-116 colon, in the test with MDA-MB-435 and in the test on UO-31 renal was above 100 µM each time. Moreover, the TGI in the test with RXF 393 renal, with CAKI-1 renal, with U251 CNS, in the test on HL-60(TB) leukemia, with EKVX NSCLC and in the test on NCI-H522 lung was above 100 µM each time. Moreover, the TGI in the test on MDA-MB-231 breast, with SNB-75 CNS, in the test with UACC-62 melanoma, in the test with MDA-N, with DU-145 prostate and with SK-MEL-2 melanoma was above 100 µM each time.
As for `COC(=O)C1C(OC(=O)C(Cl)(c2ccccc2)c2ccccc2)CC2CCC1N2C` (stereo unspecified), the TGI in the test with MALME-3M melanoma, with SF-539 CNS, with NCI-H23 lung, in the test with HCT-116 colon, with MDA-MB-435 and in the test on UO-31 renal was above 100 µM throughout. The TGI in the test with RXF 393 renal, with SNB-19 CNS, in the test on CAKI-1 renal, in the test on U251 CNS, in the test on HL-60(TB) leukemia and in the test on EKVX NSCLC was above 100 µM throughout. Also, the TGI in the test on NCI-H522 lung, in the test with MDA-MB-231 breast, in the test on SNB-75 CNS, in the test with UACC-62 melanoma, with MDA-N and in the test on DU-145 prostate was above 100 µM each time.
